The series in a line: Human HepG2 cell viability assay in 384 well format. Particulars: HepG2 cells, read-out: Inhibition. Type of series: toxicity, cell-based. The arrangement: dose 125 nL, time 70.5 hour; cytotoxicity at 70.5 h: concentration not given beside the values.
Consider `CS(=O)(=O)N1CCc2c(cccc2NC(=O)CC(F)(F)F)C1`, for which the cytotoxicity at 70.5 h is -1.76%.
The result for `Cc1c(C(=O)NCC(C)C)nnn1-c1cccc2c1CCN(C)C2` reads 1.85%; that for `CC(NC(=O)c1cc(-c2cccc(Cl)c2)no1)C(=O)N1CCCC1` (centres undefined), -10.6%; that for `Cc1ccc(OCCC(=O)NC2CCc3nccn3C2)cc1` (centres undefined), 0.164%.
As to `Cc1ccc(OCCC(=O)NC2CCc3nc(C)cn3C2)cc1` (centres undefined), the cytotoxicity at 70.5 h was determined as 2.29%.
Consider `Cc1cc(NC(=O)C(c2cccc(F)c2)N2CCOCC2)ccn1` (centres undefined), for which the cytotoxicity at 70.5 h came to 13.3%.
Take `Cc1n[nH]c(C2CN(C(=O)c3cc(Cl)c[nH]3)CCO2)n1` (centres undefined): the cytotoxicity at 70.5 h is -3.9%.
In the case of `CC(=O)Nc1cccc(OCCNC(=O)N(C)Cc2ccco2)c1`, the cytotoxicity at 70.5 h stood at 0.512%.
On to `Cc1nc(C)n(CC2CCCN(Cc3nnc(-c4ccco4)o3)C2)n1` (centres undefined), for which the cytotoxicity at 70.5 h was -2.38%.
Consider `NC(=O)CCN1CCC(C(=O)c2cc(F)ccc2F)CC1`, for which the cytotoxicity at 70.5 h came to 15%.
Consider `CC1CCN(CCNC(=O)c2ccccc2N2CCOCC2)CC1`, for which the cytotoxicity at 70.5 h is -7.45%.
The result for `O=C(NCCc1ccccn1)NC1CCN(c2ncccn2)CC1` reads -8%; that for `COc1ccc(CN(C)C(=O)CCC(=O)c2cccs2)c(OC)c1OC`, -3.38%.
As for `COC(=O)C(C)(C)NC(=O)C1CC(=O)N(C2CCCC2)C1` (centres undefined), the cytotoxicity at 70.5 h is -9.13%.
The result for `COc1ccc(C(=O)Nc2cnn(CC(=O)NC3CCCC3)c2)c(O)c1` reads -1.19%; that for `Cc1cc(C)nc(N2CCN(C(=O)c3cc(Cl)c[nH]3)CC2)n1`, -9.1%; that for `Cc1ccccc1C(=O)Nc1cnn(CC(=O)NC2CCCC2)c1`, -3.04%.
In the case of `Cc1cc(N2CCN(C(=O)c3cc(Cl)c[nH]3)CC2)nc(N)n1`, the cytotoxicity at 70.5 h was -6.18%.
Regarding `Cc1nn(C(C)C)c(C)c1NC(=O)c1ccncc1`, the cytotoxicity at 70.5 h is -5.05%.
Take `CCN(CC)c1ccc(NS(=O)(=O)c2cncc(F)c2)cn1`: the cytotoxicity at 70.5 h was -0.536%.
For `CCCNC(=O)CNc1cc(C(=O)N2CCSCC2)ccc1C`, the cytotoxicity at 70.5 h is -6%.
Under `CCSc1ccc(C(=O)Nc2c(C)nn(C(C)C)c2C)cn1` stands 14.1%; under `Cc1ccc(C(=O)N2CCSCC2)cc1NC(=O)NCCO`, -4.73%; under `COCCN(C)C(=O)c1ccc(OC)cc1O`, -2.43%.
Regarding `CS(=O)(=O)c1ccc(OCCNCc2cccc(F)c2)cc1`, the cytotoxicity at 70.5 h is -2.08%.
Regarding `NC(=O)C1CN(C(=O)Nc2cc(Cl)cc(Cl)c2)CCO1` (centres undefined), the cytotoxicity at 70.5 h was -3.67%.
For the molecule `Cc1ccc(CNCCOc2ccc(S(C)(=O)=O)cc2)cc1`, the cytotoxicity at 70.5 h was determined as 11%.
The result for `N#CCSCCCN1CCCN(C(=O)c2ccccc2)CC1` reads -8.59%; that for `CN1CC(C(=O)NC(C)(C)C)CC1=O` (centres undefined), -9.06%; that for `COC(=O)C(C)(C)NC(=O)C1CC(=O)N(C)C1` (centres undefined), -7.02%.
Under `O=C(CN1CCCCCCC1=O)NCc1ccccn1` stands -1.3%.
Regarding `Cc1nc(C)c(C(=O)N2CCC(Nc3cccnc3)CC2)s1`, the cytotoxicity at 70.5 h is -8.38%.
Regarding `CN(Cc1nnc(C2CC2)n1C)C1CCN(CCc2cccs2)C1` (centres undefined), the cytotoxicity at 70.5 h was -6.98%.
With `CN(CCN1CCOCC1)C(=O)CCc1cccc(Cl)c1`, the cytotoxicity at 70.5 h was determined as 20.6%.
With `CSc1ccc(C(CN)N2CCc3sccc3C2)cc1` (centres undefined), the cytotoxicity at 70.5 h amounted to 24.3%.
As to `CN(Cc1ccc(Cl)c(Cl)c1)C(=O)CNC(N)=O`, the cytotoxicity at 70.5 h was found to be 0.00328%.
For `Cc1cc(C(=O)N2CC[C@H]3C[C@H](c4ccncn4)O[C@@H]3C2)no1`, the cytotoxicity at 70.5 h was determined as 12.7%.
Consider `CCOCC1CN(Cc2cnn(C)c2)Cc2cnn(C)c21` (centres undefined), for which the cytotoxicity at 70.5 h is -9.88%.
The result for `O=C(C1CCOCC1)N1CC[C@@H](N2CCOCC2)[C@@H]1Cc1ccccc1` reads 5.57%.
Take `O=C(c1cscn1)N1CC[C@H]2C[C@@H](c3ccncn3)O[C@@H]2C1`: the cytotoxicity at 70.5 h came out at 7.77%.
In the case of `O=C(c1ccnnc1)N1CC[C@H]2C[C@H](c3ccncn3)O[C@@H]2C1`, the cytotoxicity at 70.5 h came to 5.3%.
Regarding `CC(=O)N1CCCC2(CCN(C(=O)c3ccc(Cl)c(C(F)(F)F)c3)C2)C1` (centres undefined), the cytotoxicity at 70.5 h is -10.6%.
Turning to `COCc1cnc2n1CCN(C(=O)c1ocnc1C)C2C` (centres undefined), the cytotoxicity at 70.5 h is 10.1%.
Turning to `Cn1cc(CN2CCOCC3(CCN(C4CCOCC4)C3)C2)cn1` (centres undefined), the cytotoxicity at 70.5 h stood at 6.49%.
The result for `O=C(c1ccncc1)N1C[C@@H](OCc2cccnc2)[C@H]2OCCC[C@H]21` reads -10.2%; that for `COCCCNC(=O)c1ccn(-c2ccc3ccccn23)n1`, -12.6%; that for `Cc1nc(CN2CCO[C@@H]3CNCC[C@@H]3C2)cs1`, -5.71%.
Take `O=C(NCc1ccncc1)C1=NOC2(CCCNC2)C1` (centres undefined): the cytotoxicity at 70.5 h was 14.2%.
Consider `Cc1cccc(CN2CCn3c(COc4ncccn4)nnc3C2)n1`, for which the cytotoxicity at 70.5 h was determined as 4.18%.
For `Cc1ccc(S(=O)(=O)NCC2COCc3c(C)nnn3C2)cc1F` (centres undefined), the cytotoxicity at 70.5 h was 7.81%.
Take `Cc1ccc(C(=O)N2CCn3c(COCC4CC4)cnc3C2C)s1` (centres undefined): the cytotoxicity at 70.5 h was -4.86%.
As to `Cc1occc1C(=O)N1CCn2c(COCC3CC3)cnc2C1C` (centres undefined), the cytotoxicity at 70.5 h is -9.85%.
As to `CC1c2ncc(COCC3CC3)n2CCN1C(=O)c1ccn(C)n1` (centres undefined), the cytotoxicity at 70.5 h was -9.47%.
The result for `CC1c2ncc(COCC3CC3)n2CCN1C(=O)c1ccnn1C` (centres undefined) reads -10.2%.
Take `Cc1cc(C(=O)N2CCn3c(COCC4CCCC4)cnc3C2C)on1` (centres undefined): the cytotoxicity at 70.5 h is -15.4%.
On to `CN(C)C(=O)CNC(=O)c1ccn(-c2ccc3ccccn23)n1`, for which the cytotoxicity at 70.5 h is -8.61%.
As for `Cc1cccc(N2CC3(CCN(C(=O)NC(C)C)C3)CC2=O)c1` (centres undefined), the cytotoxicity at 70.5 h was -9.16%.
Regarding `N#Cc1cccc(N2CC3(CCN(C(=O)NC4CC4)C3)CC2=O)c1` (centres undefined), the cytotoxicity at 70.5 h was -4.14%.
As to `CC(C)c1nccc([C@@H]2C[C@@H]3CCN(Cc4ccoc4)C[C@H]3O2)n1`, the cytotoxicity at 70.5 h was -4.41%.
The result for `O=C(NCC1CC1)C1=NOC2(CCN(S(=O)(=O)Cc3ccccc3)C2)C1` (centres undefined) reads -5.14%.
On to `CNC(=O)[C@H]1C[C@@H]2CN(C(=O)NCCc3ccccc3)C[C@H]1O2`, for which the cytotoxicity at 70.5 h was -12%.
As to `CN(C)CCO[C@H]1CN(C(=O)c2ccc(C#N)cc2)[C@@H]2COC[C@H]12`, the cytotoxicity at 70.5 h is -11%.
As for `O=C(NCc1ccccc1)[C@H]1C[C@@H]2CN(C(=O)NC3CCCC3)C[C@H]1O2`, the cytotoxicity at 70.5 h is 16.8%.
The result for `N#Cc1cccc(N2CC3(CCN(C(=O)C4CC=CC4)C3)CC2=O)c1` (centres undefined) reads -9.81%; that for `Cc1ccc(S(=O)(=O)N2CCC3(CC(C(=O)NC4CCC4)=NO3)C2)cc1` (centres undefined), 18.4%.
Under `CC(C)CNC(=O)N1C[C@H]2C[C@H](C(=O)NCc3ccccc3)[C@@H](C1)O2` stands 13.9%.
The result for `Cc1noc(C)c1C(=O)N1C[C@@H]2CN(Cc3cccnc3)CCO[C@@H]2C1` reads -7.03%; that for `Cc1nc([C@@H]2C[C@@H]3CCN(C(=O)Cc4cccc(F)c4)C[C@H]3O2)no1`, -8%; that for `CCOCC1CN(Cc2cnn(C)c2)Cc2nn(CC3CC3)cc21` (centres undefined), -10.4%.
`Cn1cc(N2CC3(COCCN(Cc4ccccn4)C3)OCC2=O)cn1` (centres undefined): the cytotoxicity at 70.5 h is -11.1%.
Regarding `CCS(=O)(=O)N1C[C@@H](OCc2ccccn2)[C@@H]2OCCC[C@@H]21`, the cytotoxicity at 70.5 h is -9.16%.
As to `Cc1ccc(C(=O)N2CCn3c(COCC4CC4)cnc3C2C)nc1` (centres undefined), the cytotoxicity at 70.5 h was -8.57%.
On to `O=C(C1CC=CC1)N1C[C@@H](OCc2cccnc2)[C@H]2OCCC[C@H]21`, for which the cytotoxicity at 70.5 h was 11.2%.
On to `O=C(N1CCCC1)N1C[C@@H](OCc2cccnc2)[C@H]2OCCC[C@H]21`, for which the cytotoxicity at 70.5 h stood at 12.7%.
Regarding `Cc1nc(CN2CCO[C@@H]3CN(C(=O)CC4CC4)C[C@@H]3C2)cs1`, the cytotoxicity at 70.5 h was -1.45%.
Consider `CN(C)CCNC(=O)c1ccn(-c2ccc3ccccn23)n1`, for which the cytotoxicity at 70.5 h is -6.93%.
With `O=C(NCCN1CCOCC1)c1ccn(-c2ccc3ccccn23)n1`, the cytotoxicity at 70.5 h is -1.69%.
On to `COCCN1CCc2c(cnc(-c3ccoc3)c2C(=O)O)C1`, for which the cytotoxicity at 70.5 h is -12.1%.
`Cc1ccc(C(=O)N2CCC3(CC2)COC(COc2cccnc2)C3)o1` (centres undefined): the cytotoxicity at 70.5 h was -7.65%.
On to `c1cc(CN2CCc3c(nnn3CC3CC3)C2COCC2CC2)co1` (centres undefined), for which the cytotoxicity at 70.5 h is -14%.
On to `C1CC(CN2CCc3c(nnn3CC3CC3)C2COCC2CC2)C1` (centres undefined), for which the cytotoxicity at 70.5 h is -8.97%.
Regarding `Cc1ccc(CN2C[C@@H]3CCCO[C@@H]3[C@H](N(C)Cc3ccco3)C2)s1`, the cytotoxicity at 70.5 h is -11%.
As to `Cc1nc(CN2CCO[C@@H]3CN(Cc4ccccn4)CC[C@@H]3C2)cs1`, the cytotoxicity at 70.5 h was -6.11%.
On to `Cc1nc(CN2CCO[C@@H]3CN(Cc4ccsc4)C[C@@H]3C2)cs1`, for which the cytotoxicity at 70.5 h was 0.892%.
Regarding `COCC1c2nnn(CC3CC3)c2CCN1Cc1ccncc1` (centres undefined), the cytotoxicity at 70.5 h was -8.11%.
On to `O=C(c1cccnc1)N1CCC2(CC1)COC(COc1ccccn1)C2` (centres undefined), for which the cytotoxicity at 70.5 h is -11.7%.
On to `Cn1nnc2c1CCN(Cc1ccncc1)C2COCC1CC1` (centres undefined), for which the cytotoxicity at 70.5 h is -9.81%.
`Cc1ccc(CN2CCC3(CC2)NC(=O)CC3c2ccncc2)cc1C` (centres undefined): the cytotoxicity at 70.5 h was -3.31%.
Under `O=C(c1ccco1)N1C[C@H]2CCCN(Cc3ccncc3)[C@H]2C1` stands -3.44%; under `COCC1CC2(CCN(Cc3cccc(C#N)c3)CC2)CN1C(C)C` (centres undefined), -4.89%.
Under `O=C1CO[C@@H]2CN(Cc3ccncc3)C[C@H]2N1Cc1ccncc1` stands -7.94%.
Under `c1ccc(CN2CCc3nnc(COc4ccccn4)n3CC2)nc1` stands 13.9%; under `CN(C)CCOCC1CN(Cc2cccs2)Cc2ccnn2C1` (centres undefined), -9.15%; under `CN(Cc1ccncc1)C1COC2(CCN(Cc3ccccn3)CC2)C1` (centres undefined), -7%.

The values above are taken from ChEMBL document CHEMBL3507680, “University of Dundee, Gates Library screen for HepG2 cell viability”.
